The target in this assay is T1, Purified ERAP1(37-941)-10His (ERAP1) (Homo sapiens, UniProt Q9NZ08).
T1 construct: Purified ERAP1(37-941)-10His (ERAP1); 10His (C)
Description: ERAP1 mediated hydrolysis of an amide substrate measured in a biochemical system (10-mer decapeptide substrate). The note with it: 10-mer substrate, 23° C. for 1 h, excitation 279 nm and emission 355 nm; read-out: IC50 vs Decapeptide WRVYEKC(Dnp)ALK-acid (where Dnp is Dinitrophenyl maleimide) (10-mer). The procedure:
Biological Assay 1: ERAP1 Mediated Hydrolysis of an Amide Substrate Measured in a Biochemical System
1× Assay buffer (AB): 25 mM Bis-tris propane, 0.05% w/v Hydroxypropylmethylcellulose pH 7.75 made with Optima grade water
Decapeptide WRVYEKC(Dnp)ALK-acid (where Dnp is Dinitrophenyl maleimide) (10-mer) L-Leucine 7-amido-4-methylcoumarin (L-AMC)
12.5 μL ERAP1 enzyme in 1×AB was combined with 250 nL test compound in DMSO. 12.5 μL of either 240 μM L-AMC in 1×AB or 100 μM 10-mer in 1×AB was added to the reaction and incubated at 23° C. for 1 h. For detection, plates were read at excitation 365 nm and emission 442 nm (L-AMC) or excitation 279 nm and emission 355 nm (10-mer). Compound IC50 was determined using a 4 parameter equation.

Structures are written as SMILES.

T1 sequence (Q9NZ08 37-941): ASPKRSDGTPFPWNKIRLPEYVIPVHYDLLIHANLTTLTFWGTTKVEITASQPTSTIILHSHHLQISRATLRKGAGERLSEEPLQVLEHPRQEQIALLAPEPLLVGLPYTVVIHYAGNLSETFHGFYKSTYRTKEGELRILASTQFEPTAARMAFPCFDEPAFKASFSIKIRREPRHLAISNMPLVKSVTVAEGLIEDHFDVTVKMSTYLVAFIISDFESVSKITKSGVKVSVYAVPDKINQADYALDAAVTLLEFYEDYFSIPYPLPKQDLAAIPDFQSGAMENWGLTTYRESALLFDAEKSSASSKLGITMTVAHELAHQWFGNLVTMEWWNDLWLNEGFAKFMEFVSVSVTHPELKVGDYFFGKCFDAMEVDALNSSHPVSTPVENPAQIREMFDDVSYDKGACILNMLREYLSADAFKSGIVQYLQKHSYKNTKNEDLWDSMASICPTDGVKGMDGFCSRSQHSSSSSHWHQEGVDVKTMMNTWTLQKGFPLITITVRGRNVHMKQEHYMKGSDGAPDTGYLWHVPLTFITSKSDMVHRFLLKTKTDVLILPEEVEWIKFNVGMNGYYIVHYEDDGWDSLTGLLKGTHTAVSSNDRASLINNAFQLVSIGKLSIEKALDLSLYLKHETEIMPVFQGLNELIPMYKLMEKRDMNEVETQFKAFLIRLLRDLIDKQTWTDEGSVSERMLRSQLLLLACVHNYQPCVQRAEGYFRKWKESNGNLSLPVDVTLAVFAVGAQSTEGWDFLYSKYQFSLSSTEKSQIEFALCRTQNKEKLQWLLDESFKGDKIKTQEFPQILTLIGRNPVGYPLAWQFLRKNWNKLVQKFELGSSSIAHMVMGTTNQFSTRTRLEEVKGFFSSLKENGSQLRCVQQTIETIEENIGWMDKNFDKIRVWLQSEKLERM

By IC50 is commonly meant the concentration needed to halve the response being measured. With `COc1ccc(C(=O)O)cc1S(=O)(=O)Nc1cc(C(F)(F)F)ccc1-n1cccc1` [Example 35, 3-(N-(2-(pyrrol-1-yl)-5-(trifluoromethyl)phenyl)sulfamoyl)-4-methoxybenzoic acid], the IC50 was under 500 nM.

On to `CCc1ccc(C(=O)O)cc1S(=O)(=O)Nc1cc(C(F)(F)F)ccc1-n1cccc1` [Example 36, 3-(N-(2-(pyrrol-1-yl)-5-(trifluoromethyl)phenyl)sulfamoyl)-4-ethylbenzoic acid], for which the IC50 is under 500 nM.

With `CCc1ccc(C(=O)O)cc1S(=O)(=O)Nc1cc(C(F)(F)F)ccc1-c1ccccn1` [Example 37, 4-ethyl-3-(N-(2-(pyridin-2-yl)-5-(trifluoromethyl)phenyl)sulfamoyl)benzoic acid], the concentration for half-maximal inhibition (IC50) was under 500 nM.

Regarding `CCc1ccc(C(=O)O)cc1S(=O)(=O)Nc1cc(C#N)ccc1-c1ccccn1` [Example 38, 3-(N-(5-cyano-2-(pyridin-2-yl)phenyl)sulfamoyl)-4-ethylbenzoic acid], the IC50 is under 500 nM.

On to `CCc1ccc(C(=O)O)cc1S(=O)(=O)Nc1cc(S(C)(=O)=O)ccc1-c1cccc(C#N)c1` [Example 39, 3-(N-(3′-cyano-4-(methylsulfonyl)-[1,1′-biphenyl]-2-yl)sulfamoyl)-4-ethylbenzoic acid], for which the IC50 is under 500 nM.

In the case of `CCc1ccc(C(=O)O)cc1S(=O)(=O)Nc1cc(C#N)ccc1-c1ccccc1` [Example 40, 3-(N-(4-cyano-[1,1′-biphenyl]-2-yl)sulfamoyl)-4-ethylbenzoic acid], the IC50 is under 500 nM.

As for `CCc1ccc(C(=O)O)cc1S(=O)(=O)Nc1cc(C#N)ccc1-c1cccc(F)c1` [Example 41], the IC50 was under 500 nM.

For the compound `CCc1ccc(C(=O)O)cc1S(=O)(=O)Nc1cc(C#N)ccc1-c1cccc(C#N)c1` [Example 42, 3-(N-(3′,4-dicyano-[1,1′-biphenyl]-2-yl)sulfamoyl)-4-ethylbenzoic acid], the concentration for half-maximal inhibition (IC50) was under 500 nM.

In the case of `CCc1ccc(C(=O)O)cc1S(=O)(=O)Nc1cc(C#N)ccc1-c1cccs1` [Example 43, 3-(N-(5-cyano-2-(thiophen-2-yl)phenyl)sulfamoyl)-4-ethylbenzoic acid], the IC50 was under 500 nM.

As for `COc1ccc(C(=O)O)cc1S(=O)(=O)Nc1cc(S(C)(=O)=O)ccc1-c1ccccn1` [Example 44, 4-methoxy-3-(N-(5-(methylsulfonyl)-2-(pyridin-2-yl)phenyl)sulfamoyl)benzoic acid], the IC50 is under 500 nM.

On to `COc1ccc(C(=O)O)cc1S(=O)(=O)Nc1cc(C#N)ccc1-c1ccccn1` [Example 45, 3-(N-(5-cyano-2-(pyridin-2-yl)phenyl)sulfamoyl)-4-methoxybenzoic acid], for which the IC50 was under 500 nM.

Regarding `COc1ccc(C(=O)O)cc1S(=O)(=O)Nc1cc(C(F)(F)F)ccc1-c1cccc(Cl)c1` [Example 46, 3-(N-(3′-chloro-4-(trifluoromethyl)-[1,1′-biphenyl]-2-yl)sulfamoyl)-4-methoxybenzoic acid], the IC50 is under 500 nM.

Turning to `COc1ccc(C(=O)O)cc1S(=O)(=O)Nc1cc(C(F)(F)F)ccc1-c1ccc(C)cc1` [Example 47, 4-methoxy-3-(N-(4′-methyl-4-(trifluoromethyl)-[1,1′-biphenyl]-2-yl)sulfamoyl)benzoic acid], the IC50 was over 5000 nM.

With `COc1ccc(-c2ccc(C(F)(F)F)cc2NS(=O)(=O)c2cc(C(=O)O)ccc2OC)cc1` [Example 48, 4-methoxy-3-(N-(4′-methoxy-4-(trifluoromethyl)-[1,1′-biphenyl]-2-yl)sulfamoyl)benzoic acid], the IC50 is over 5000 nM.

Take `COc1ccc(C(=O)O)cc1S(=O)(=O)Nc1cc(C(F)(F)F)ccc1-c1ccc(Cl)cc1` [Example 49, 3-(N-(4′-chloro-4-(trifluoromethyl)-[1,1′-biphenyl]-2-yl)sulfamoyl)-4-methoxybenzoic acid]: the IC50 was under 500 nM.

In the case of `CCc1ccc(C(=O)O)cc1S(=O)(=O)Nc1cc(C(F)(F)F)ccc1-n1ccnc1` [Example 50, 3-(N-(2-(imidazol-1-yl)-5-(trifluoromethyl)phenyl)sulfamoyl)-4-ethylbenzoic acid], the IC50 is under 500 nM.

For `COc1ccc(C(=O)O)cc1S(=O)(=O)Nc1cc(C(F)(F)F)ccc1-c1ccccc1C(C)C` [Example 51, 3-(N-(2′-isopropyl-4-(trifluoromethyl)-[1,1′-biphenyl]-2-yl)sulfamoyl)-4-methoxybenzoic acid], the IC50 is under 5000 nM.

For `CCc1ccc(C(=O)O)cc1S(=O)(=O)Nc1cc(-n2cnnn2)ccc1-c1ccccc1` [Example 52, 3-(N-(4-(tetrazol-1-yl)-[1,1′-biphenyl]-2-yl)sulfamoyl)-4-ethylbenzoic acid], the IC50 is under 500 nM.

Regarding `CCc1ccc(C(=O)O)cc1S(=O)(=O)Nc1cc(-n2cnnn2)ccc1-c1cccc(F)c1` [Example 53, 4-ethyl-3-(N-(3′-fluoro-4-(tetrazol-1-yl)-[1,1′-biphenyl]-2-yl)sulfamoyl) benzoic acid], the IC50 was under 500 nM.

Regarding `CCc1ccc(C(=O)O)cc1S(=O)(=O)Nc1cc(S(C)(=O)=O)ccc1-c1cccnc1` [Example 54, 4-ethyl-3-(N-(5-(methylsulfonyl)-2-(pyridin-3-yl)phenyl)sulfamoyl) benzoic acid], the IC50 was under 500 nM.

Take `O=C(O)c1ccc(C2CC2)c(S(=O)(=O)Nc2cc(C(F)(F)F)ccc2-c2ccccc2)c1` [Example 55, 4-cyclopropyl-3-(N-(4-(trifluoromethyl)-[1,1′-biphenyl]-2-yl)sulfamoyl) benzoic acid]: the IC50 was under 500 nM.

Take `CCc1ccc(C(=O)O)cc1S(=O)(=O)Nc1cc(-n2cnnn2)ccc1-c1cccc(C#N)c1` [Example 56, 3-(N-(3′-cyano-4-tetrazol-1-yl-[1,1′-biphenyl]-2-yl)sulfamoyl)-4-ethylbenzoic acid]: the 50% inhibitory concentration (IC50) is under 500 nM.

Regarding `CCc1ccc(C(=O)O)cc1S(=O)(=O)Nc1cc(C#N)ccc1-c1cccnc1` [Example 57, 3-(N-(5-cyano-2-(pyridin-3-yl)phenyl)sulfamoyl)-4-ethylbenzoic acid], the half-maximal inhibitory concentration (IC50) is under 500 nM.

On to `CCc1ccc(C(=O)O)cc1S(=O)(=O)Nc1cc(C(F)(F)F)ccc1-c1ccc(C)s1` [Example 58, 4-ethyl-3-(N-(2-(5-methylthiophen-2-yl)-5-(trifluoromethyl)phenyl)sulfamoyl)benzoic acid], for which the IC50 was under 500 nM.

Take `CCc1ccc(C(=O)O)cc1S(=O)(=O)Nc1cc(C(F)(F)F)ccc1-c1ccc(OC)s1` [Example 59, 4-ethyl-3-(N-(2-(5-methoxythiophen-2-yl)-5-(trifluoromethyl)phenyl)sulfamoyl)benzoic acid]: the IC50 was under 500 nM.

For the compound `COc1ccc(C(=O)O)cc1S(=O)(=O)Nc1cc(C#N)ccc1-c1ccccc1` [Example 60, 3-(N-(4-cyano-[1,1′-biphenyl]-2-yl)sulfamoyl)-4-methoxybenzoic acid], the 50% inhibitory concentration (IC50) is under 500 nM.

As to `COc1ccc(C(=O)O)cc1S(=O)(=O)Nc1cc(C#N)ccc1-c1cccc(F)c1` [Example 61, 3-(N-(4-cyano-3′-fluoro-[1,1′-biphenyl]-2-yl)sulfamoyl)-4-methoxybenzoic acid], the IC50 is under 500 nM.

As for `COc1ccc(C(=O)O)cc1S(=O)(=O)Nc1cc(C#N)ccc1-c1cccs1` [Example 62, 3-(N-(5-cyano-2-(thiophen-2-yl)phenyl)sulfamoyl)-4-methoxybenzoic acid], the IC50 is under 500 nM.

These data come from US12023333B2, “Phenyl-sulfamoyl.benzoyc acids as ERAP1 modulators” (GREY WOLF THERAPEUTICS LIMITED, priority 2019, dated 2024).
